Experimental data from patent US10266603B2, “Targeted therapy to restore radioactive iodine transport in thyroid cancer” (The Governors of the University of Alberta, priority 2014, dated 2019).

Experiments:
Assay type in all cases: cell-based, human
8305C cell line = assay: wound-healing assay (cellular migration), 8305C; details: 8305C cell line expressing alpha subunit of PDGFR; after 24 and 42 hours; versus no crenolanib
Description: (§1) FIG. 8. The effect of PDGFRA blockade using a specific PDGFRA small molecule inhibitor on cellular migration using the wound-healing assay. In two separate cell lines that express the alpha subunit of PDGFR as shown in (A) 8305C cell line and BCPAP cell line in (B), the addition of crenolanib as a selective alpha inhibitor means that the percentage of open wound left after 24 and 42 hours is much higher because of slow the migration of the cells across the gap and this is highly significant. This illustrates the role of PDGFRA in mediating a more aggressive, dedifferentiated behavior for these tumors.

BCPAP cell line = assay: wound-healing assay (cellular migration), BCPAP; details: BCPAP cell line expressing alpha subunit of PDGFR; after 24 and 42 hours; versus no crenolanib
Description: as §1

[1] = tested on: patient derived papillary thyroid carcinoma primary tumors; assay: iodide transport in patient derived primary tumors; details: patient derived PTC primary tumors; 72 hour period
Text: FIG. 9. In the effect of PDGFRA blockade using small molecule inhibitors on iodide transport in patient derived papillary thyroid carcinoma primary tumors.

CC1(COc2ccc3c(c2)ncn3-c2ccc3cccc(N4CCC(N)CC4)c3n2)COC1 [crenolanib]
percentage of open wound left (8305C cell line): much higher | percentage of open wound left (BCPAP cell line): much higher | iodide uptake [1]: significant increase in iodide uptake
